In assay [1] the test system is Calpain activity in SH-SY5Y cells. In words: SH-SY5Y Suc-LLVY-AMC fluorescence assay. In kind it is cell-based. The note with it: Homo sapiens, read-out: SH-SY5Y + AMC IC50.
For assay [2], the target named is T1, Human Calpain 9/NS1 (Homo sapiens, UniProt O14815).
T1 sequence (O14815 1-690): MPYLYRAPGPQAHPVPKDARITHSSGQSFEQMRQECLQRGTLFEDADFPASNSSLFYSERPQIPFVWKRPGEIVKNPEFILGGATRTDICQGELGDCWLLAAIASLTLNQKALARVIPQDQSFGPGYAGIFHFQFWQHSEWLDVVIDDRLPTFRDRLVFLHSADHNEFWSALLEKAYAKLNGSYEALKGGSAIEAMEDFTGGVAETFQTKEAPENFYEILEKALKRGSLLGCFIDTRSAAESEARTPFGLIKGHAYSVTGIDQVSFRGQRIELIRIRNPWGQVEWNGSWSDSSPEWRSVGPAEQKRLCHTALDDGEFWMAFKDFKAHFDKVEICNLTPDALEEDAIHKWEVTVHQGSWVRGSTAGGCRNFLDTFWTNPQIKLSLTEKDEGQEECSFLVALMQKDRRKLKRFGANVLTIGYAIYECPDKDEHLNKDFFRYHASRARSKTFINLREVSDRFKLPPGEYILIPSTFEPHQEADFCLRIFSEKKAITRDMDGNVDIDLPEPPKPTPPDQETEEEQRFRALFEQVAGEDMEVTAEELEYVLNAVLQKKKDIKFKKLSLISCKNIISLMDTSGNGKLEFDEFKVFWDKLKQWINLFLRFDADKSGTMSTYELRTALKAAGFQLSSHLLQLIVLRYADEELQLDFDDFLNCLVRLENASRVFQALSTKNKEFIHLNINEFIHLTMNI
T1 sequence (P04632 1-268 partner): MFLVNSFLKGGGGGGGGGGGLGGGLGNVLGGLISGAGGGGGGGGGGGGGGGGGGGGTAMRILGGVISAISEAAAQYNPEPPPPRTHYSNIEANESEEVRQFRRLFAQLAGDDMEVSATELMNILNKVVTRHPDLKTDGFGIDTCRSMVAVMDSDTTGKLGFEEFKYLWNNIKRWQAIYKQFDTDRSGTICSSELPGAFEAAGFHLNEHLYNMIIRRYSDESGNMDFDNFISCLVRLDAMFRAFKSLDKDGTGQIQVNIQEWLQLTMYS
The assay is described as follows: Calpain inhibition, continuous fluorescence (FRET substrate) assay, calpain 9. Format: biochemical. The conditions noted are these: SensoLyte 520 FRET substrate, 25C. In outline:
(§1)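 Calpains preincubated with serially diluted inhibitors at 25 °C in 50 mM Tris pH 7.5, 100 mM NaCl, 1 mM DTT; CaCl2 plus 5-FAM/QXL 520 FRET substrate started the reaction. Fluorescence (490/520 nm) read 10 min; rates from 1-5 min slopes, IC50 from 4-parameter logistic fit.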

Assay [3] relates to Calpain activity in SH-SY5Y cells. The assay is described as follows: SH-SY5Y spectrin breakdown product (SBDP-150) western blot assay. In kind it is cell-based. The note with it: Homo sapiens, read-out: SH-SY5Y Spectrin IC50.
Assay [4] deals with T2, Human Calpain 1/NS1 (Homo sapiens, UniProt P07384).
T2 sequence (P07384 1-714): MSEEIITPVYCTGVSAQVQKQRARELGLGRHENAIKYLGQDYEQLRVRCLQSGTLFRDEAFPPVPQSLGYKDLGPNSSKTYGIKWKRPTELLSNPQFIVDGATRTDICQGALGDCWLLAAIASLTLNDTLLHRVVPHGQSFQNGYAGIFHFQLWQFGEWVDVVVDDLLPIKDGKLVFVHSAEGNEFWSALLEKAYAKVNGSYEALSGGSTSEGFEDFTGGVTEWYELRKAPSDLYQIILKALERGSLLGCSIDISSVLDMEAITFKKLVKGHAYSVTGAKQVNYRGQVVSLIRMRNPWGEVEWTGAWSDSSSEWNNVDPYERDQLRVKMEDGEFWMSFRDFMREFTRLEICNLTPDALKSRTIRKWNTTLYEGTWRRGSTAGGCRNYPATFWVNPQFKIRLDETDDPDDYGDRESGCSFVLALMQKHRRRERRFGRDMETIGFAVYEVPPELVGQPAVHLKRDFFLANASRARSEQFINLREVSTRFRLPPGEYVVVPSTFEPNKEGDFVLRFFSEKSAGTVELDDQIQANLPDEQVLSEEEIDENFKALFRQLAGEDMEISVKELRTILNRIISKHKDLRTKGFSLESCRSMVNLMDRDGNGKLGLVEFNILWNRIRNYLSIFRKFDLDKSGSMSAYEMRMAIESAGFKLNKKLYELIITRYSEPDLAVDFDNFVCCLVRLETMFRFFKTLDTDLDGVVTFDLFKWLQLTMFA
T2 sequence (P04632 1-268 partner): T1 sequence (P04632 1-268 partner)
The assay is described as follows: Calpain inhibition, continuous fluorescence (FRET substrate) assay, calpain 1. Format: biochemical. The conditions noted are these: SensoLyte 520 FRET substrate, 25C. In outline:
as §1

The target in assay [5] is T3, Human Calpain 2/NS1 (Homo sapiens, UniProt P17655).
T3 sequence (P17655 1-700): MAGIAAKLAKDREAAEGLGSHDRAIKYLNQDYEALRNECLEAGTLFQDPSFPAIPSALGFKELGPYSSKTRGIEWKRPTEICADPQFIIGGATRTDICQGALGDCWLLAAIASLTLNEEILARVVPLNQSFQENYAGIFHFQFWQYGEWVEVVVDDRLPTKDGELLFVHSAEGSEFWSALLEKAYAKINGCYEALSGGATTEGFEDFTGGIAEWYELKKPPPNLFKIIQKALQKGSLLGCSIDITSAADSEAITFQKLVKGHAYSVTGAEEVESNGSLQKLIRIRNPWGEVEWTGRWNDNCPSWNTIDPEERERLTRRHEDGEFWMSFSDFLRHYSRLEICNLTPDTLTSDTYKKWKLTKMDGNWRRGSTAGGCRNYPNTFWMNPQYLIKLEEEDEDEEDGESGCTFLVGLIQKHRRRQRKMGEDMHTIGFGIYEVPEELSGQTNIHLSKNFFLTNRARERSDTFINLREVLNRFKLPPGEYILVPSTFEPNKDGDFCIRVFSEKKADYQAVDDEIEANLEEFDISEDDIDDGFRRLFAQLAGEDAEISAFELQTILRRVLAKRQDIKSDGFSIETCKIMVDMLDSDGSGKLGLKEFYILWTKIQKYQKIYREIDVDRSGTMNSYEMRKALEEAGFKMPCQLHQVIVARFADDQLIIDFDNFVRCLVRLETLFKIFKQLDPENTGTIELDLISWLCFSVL
T3 sequence (P04632 1-268 partner): T1 sequence (P04632 1-268 partner)
In words: Calpain inhibition, continuous fluorescence (FRET substrate) assay, calpain 2. In kind it is biochemical. The note with it: SensoLyte 520 FRET substrate, 25C. In outline: as §1

The mark [6] stands for this setting: SH-SY5Y cells, 100 uM Suc-LLVY-AMC.
Setting [7] is: SH-SY5Y cells, 25 uM A23187, SBDP-150 western blot.

A value given as a limit tells only on which side of the number the result lay.

In the case of `Cn1cc(C(=O)NC(Cc2ccccc2)C(=O)C(N)=O)c(-c2cccc3scnc23)n1` (centres unmarked) [Compound 51, N-(4-AMINO-3,4-DIOXO-1-PHENYLBUTAN-2-YL)-3-(BENZO[D]THIAZOL-4-YL)-1-METHYL-1H-PYRAZOLE-4-CARBOXAMIDE], the IC50 is more than 25 µM in assay [1] (setting [6]); less than 3 µM in assay [2]; 10 to 25 µM in assay [3] (setting [7]); less than 3 µM in assay [4]; less than 3 µM in assay [5].
With `NC(=O)C(=O)C(Cc1ccccc1)NC(=O)c1nsnc1-c1coc(Cl)c1` (centres unmarked) [Compound 52, N-(4-AMINO-3,4-DIOXO-1-PHENYLBUTAN-2-YL)-4-(5-CHLOROFURAN-3-YL)-1,2,5-THIADIAZOLE-3-CARBOXAMIDE], the IC50 in assay [1] (setting [6]) is more than 25 µM; in assay [2] it was less than 3 µM; in assay [3] (setting [7]), 10 to 25 µM; in assay [4], less than 3 µM; in assay [5], less than 3 µM.
On to `Cn1cc(C(=O)NC(Cc2ccccc2)C(=O)C(N)=O)c(-c2cccc3ccncc23)n1` (centres unmarked) [Compound 54], for which the IC50 in assay [1] (setting [6]) was more than 25 µM; in assay [2] it was less than 3 µM; in assay [3] (setting [7]), more than 25 µM; in assay [4], less than 3 µM; in assay [5], less than 3 µM.
For the compound `Cc1cc(-c2nn(C)cc2C(=O)NC(Cc2ccccc2)C(=O)C(N)=O)c(C)o1` (centres unmarked) [Compound 55, N-(4-AMINO-3,4-DIOXO-1-PHENYLBUTAN-2-YL-3-(2,5-DIMETHYLFURAN-3-YL)-1-METHYL-1H-PYRAZOLE-4-CARBOXAMIDE], the IC50 in assay [1] (setting [6]) was less than 10 µM; in assay [2] it was less than 3 µM; in assay [3] (setting [7]), more than 25 µM; in assay [4], less than 3 µM; in assay [5] it was less than 3 µM.
With `O=C(NC(Cc1ccccc1)C(=O)Nc1ncco1)c1nsnc1-c1ccccc1` (centres unmarked) [Compound 57, N-(1-(OXAZOL-2-YLAMINO)-1-OXO-3-PHENYLPROPAN-2-YL)-4-PHENYL-1,2,5-THIADIAZOLE-3-CARBOXAMIDE], the IC50 in assay [1] (setting [6]) was more than 25 µM; in assay [2] it was more than 10 µM; in assay [3] (setting [7]) it was more than 25 µM; in assay [4], more than 10 µM; in assay [5] it was more than 10 µM.
As for `Cc1nc(-c2cccc3ccccc23)c(C(=O)NC(Cc2ccccc2)C(=O)C(N)=O)o1` (centres unmarked) [Compound 58, N-(4-AMINO-3,4-DIOXO-1-PHENYLBUTAN-2-YL)-2-METHYL-4-(NAPHTHALEN-1-YL)OXAZOLE-5-CARBOXAMIDE], the half-maximal inhibitory concentration (IC50) is less than 10 µM in assay [1] (setting [6]); less than 3 µM in assay [2]; less than 10 µM in assay [3] (setting [7]); less than 3 µM in assay [4]; less than 3 µM in assay [5].
In the case of `Cc1cc(C(=O)NC(Cc2ccccc2)C(=O)C(N)=O)nn1-c1nccc(-c2ccccc2)n1` (centres unmarked) [Compound 59, N-(4-AMINO-3,4-DIOXO-1-PHENYLBUTAN-2-YL)-5-METHYL-1-(4-PHENYLPYRIMIDIN-2-YL)-1H-PYRAZOLE-3-CARBOXAMIDE], the IC50 in assay [1] (SH-SY5Y) was less than 10 µM; in assay [2] it was more than 10 µM; in assay [3] (SH-SY5Y), more than 25 µM; in assay [4], more than 10 µM; in assay [5], 3 to 10 µM.
Consider `O=C(O)C(=O)C(Cc1ccccc1)NC(=O)c1cn(C2CC2)nc1-c1ccccc1` (centres unmarked) [Compound 60, 3-(1-CYCLOPROPYL-3-PHENYL-1H-PYRAZOLE-4-CARBOXAMIDO)-2-OXO-4-PHENYLBUTANOIC ACID], for which the half-inhibitory concentration (IC50) is 10 to 25 µM in assay [1] (setting [6]); less than 3 µM in assay [2]; 10 to 25 µM in assay [3] (setting [7]); less than 3 µM in assay [4]; less than 3 µM in assay [5].
With `Cn1cc2c(-c3nn(C(F)F)cc3C(=O)NC(Cc3ccccc3)C(=O)C(N)=O)cccc2n1` (centres unmarked) [Compound 61, N-(4-AMINO-3,4-DIOXO-1-PHENYLBUTAN-2-YL)-1-(DIFLUOROMETHYL)-3-(2-METHYL-2H-INDAZOL-4-YL)-1H-PYRAZOLE-4-CARBOXAMIDE], the IC50 was less than 10 µM in assay [1] (setting [6]); less than 3 µM in assay [2]; less than 10 µM in assay [3] (setting [7]); less than 3 µM in assay [4]; less than 3 µM in assay [5].
Turning to `Cn1ncc2c(-c3nn(C(F)F)cc3C(=O)NC(Cc3ccccc3)C(=O)C(N)=O)cccc21` (centres unmarked) [Compound 62, N-(4-AMINO-3,4-DIOXO-1-PHENYLBUTAN-2-YL)-1-(DIFLUOROMETHYL)-3-(1-METHYL-1H-INDAZOL-4-YL)-1H-PYRAZOLE-4-CARBOXAMIDE], the IC50 in assay [1] (setting [6]) is less than 10 µM; in assay [2], less than 3 µM; in assay [3] (setting [7]) it was less than 10 µM; in assay [4], less than 3 µM; in assay [5] it was less than 3 µM.
For the compound `NC(=O)C(=O)C(Cc1ccccc1)NC(=O)c1cn(C(F)F)nc1-c1ncnc2ccccc12` (centres unmarked) [Compound 63, N-(4-AMINO-3,4-DIOXO-1-PHENYLBUTAN-2-YL)-1-(DIFLUOROMETHYL)-3-(QUINAZOLIN-4-YL)-1H-PYRAZOLE-4-CARBOXAMIDE], the IC50 in assay [1] (setting [6]) is less than 10 µM; in assay [2], less than 3 µM; in assay [3] (setting [7]), 10 to 25 µM; in assay [4] it was less than 3 µM; in assay [5] it was less than 3 µM.
Turning to `Cc1nc(-c2ccccc2F)c(C(=O)NC(Cc2ccccc2)C(=O)C(=O)O)o1` (centres unmarked) [Compound 64, 3-(4-(2-FLUOROPHENYL)-2-METHYLOXAZOLE-5-CARBOXAMIDO)-2-OXO-4-PHENYLBUTANOIC ACID], the IC50 in assay [1] (setting [6]) is less than 10 µM; in assay [2], less than 3 µM; in assay [3] (setting [7]), more than 25 µM; in assay [4], less than 3 µM; in assay [5], less than 3 µM.
As to `Cn1cc(C(=O)NC(Cc2ccccc2)C(=O)C(=O)O)c(-c2ccccc2F)n1` (centres unmarked) [Compound 65, 3-(3-(2-FLUOROPHENYL)-1-METHYL-1H-PYRAZOLE-4-CARBOXAMIDO)-2-OXO-4-PHENYLBUTANOIC ACID], the IC50 was less than 10 µM in assay [1] (setting [6]); less than 3 µM in assay [2]; more than 25 µM in assay [3] (setting [7]); less than 3 µM in assay [4]; less than 3 µM in assay [5].
